# Measurements reported in ChEMBL document CHEMBL1201862, “PubChem BioAssay data set” (2004).
# The source made the active and inactive calls.
# Experiments:
# [1] = Luminescence Cell-Based Dose Retest to Confirm Inhibitors of Cancer Stem Cells. [Related pubchem assays (depositor defined):AID2717, AID2721]; format: functional; conditions: Homo sapiens
# Coagulation factor XII = biological target: T1, Coagulation factor XII (Homo sapiens, UniProt P00748); format: functional;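 note: activated factor XIIa alpha cleaving a fluorogenic AMC peptide substrate; inhibitor potency from loss of enzyme activity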
# T1 sequence (P00748 whole entry): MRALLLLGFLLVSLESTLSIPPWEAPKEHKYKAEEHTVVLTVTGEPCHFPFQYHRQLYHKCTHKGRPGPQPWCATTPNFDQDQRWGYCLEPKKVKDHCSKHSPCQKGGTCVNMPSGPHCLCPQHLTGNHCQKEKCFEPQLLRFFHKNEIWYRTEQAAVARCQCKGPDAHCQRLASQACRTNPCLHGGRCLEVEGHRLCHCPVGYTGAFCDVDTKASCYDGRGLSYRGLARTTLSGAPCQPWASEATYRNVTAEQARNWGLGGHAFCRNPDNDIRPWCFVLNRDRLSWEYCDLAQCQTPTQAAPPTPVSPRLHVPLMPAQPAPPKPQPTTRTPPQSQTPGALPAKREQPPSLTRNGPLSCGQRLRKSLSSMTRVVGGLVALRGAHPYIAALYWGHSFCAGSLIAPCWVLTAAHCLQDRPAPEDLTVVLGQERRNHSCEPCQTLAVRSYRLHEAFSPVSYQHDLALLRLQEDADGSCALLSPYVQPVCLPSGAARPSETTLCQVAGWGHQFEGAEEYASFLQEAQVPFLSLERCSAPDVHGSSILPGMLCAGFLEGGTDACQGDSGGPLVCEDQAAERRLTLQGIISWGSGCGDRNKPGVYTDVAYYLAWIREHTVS
# [2] = biological target: T2, Heat shock factor protein 1 (Mus musculus, UniProt P38532); assay: HSF1 potentiators in luciferase reporter cells, confirmation, cell-based, NIH3T3, luminescence, dose retest (AID 435004); format: functional;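 note: stress induced by proteasome inhibitor MG132 added 30 min after compound; luciferase reporter driven by HSF1 response element in NIH3T3 cells; actives raise luminescence as potentiators of the MG132 stress response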
# T2 sequence (P38532 whole entry): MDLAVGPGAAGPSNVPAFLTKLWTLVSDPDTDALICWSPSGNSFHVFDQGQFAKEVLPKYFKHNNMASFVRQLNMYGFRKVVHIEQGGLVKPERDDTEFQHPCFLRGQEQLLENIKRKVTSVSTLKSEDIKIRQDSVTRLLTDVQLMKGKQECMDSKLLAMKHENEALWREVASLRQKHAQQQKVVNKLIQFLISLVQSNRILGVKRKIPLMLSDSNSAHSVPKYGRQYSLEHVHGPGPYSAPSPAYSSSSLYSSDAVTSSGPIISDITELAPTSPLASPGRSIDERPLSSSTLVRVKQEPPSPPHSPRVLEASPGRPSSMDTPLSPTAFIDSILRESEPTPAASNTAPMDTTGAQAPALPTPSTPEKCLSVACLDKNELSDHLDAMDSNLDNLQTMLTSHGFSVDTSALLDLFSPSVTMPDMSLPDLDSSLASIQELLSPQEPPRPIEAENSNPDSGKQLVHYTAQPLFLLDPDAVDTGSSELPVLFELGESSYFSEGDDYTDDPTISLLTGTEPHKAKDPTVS
# [3] = HEp-2 cell cytotoxicity, dose response, cytotoxicity control for RSV inhibitor project, HTS (AID 2410); format: functional; conditions: human respiratory syncytial virus
# BJ [4] = assay: cytotoxicity toward BJ-TERT fibroblasts, dose response, cell-based, RAS-independent, luminescence (AID 1933); format: functional; conditions: Homo sapiens
# BJ [5] = assay: cells; format: functional, cell-based; conditions: Homo sapiens
# [6] = inhibitors of intracellular T. cruzi replication, confirmation, NIH3T3 host cells, beta-gal luminescence (AID 2044); format: functional, cell-based;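 note: intracellular parasites grown in NIH/3T3 mouse fibroblasts as host cells; luminescent beta-galactosidase reporter signal from transgenic T. cruzi replicating inside host cells; inhibitors lower the luminescence signal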
# [7] = cytotoxicity toward NIH3T3 fibroblasts, dose response, counter-screen, cell-based, ATP luminescence, mouse fibroblasts (AID 2010); format: functional;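 note: cells exposed to compound for about 90 hours before reading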
# BJ [8] = assay: cytotoxicity toward BJ-TERT-LT-ST fibroblasts, dose response, cell-based, RAS-independent, luminescence (AID 1935); format: functional; conditions: Homo sapiens;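 note: BJ fibroblasts immortalized with TERT plus LT and ST oncogenes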
# [9] = cytotoxicity toward DRD oncogenic fibroblasts, dose response, cell-based, non-viral oncogenic, luminescence (AID 1934); format: functional; conditions: Homo sapiens
# [10] = biological target: T3, Type-1 angiotensin II receptor (Homo sapiens, UniProt P30556); assay: AT1 receptor agonists, dose response, selectivity assay for APJ receptor agonist project, cell-based, uHTS hits (AID 488865); format: functional;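 note: beta-arrestin recruitment to AT1 measured by enzyme fragment complementation luminescence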
# T3 sequence (P30556 whole entry): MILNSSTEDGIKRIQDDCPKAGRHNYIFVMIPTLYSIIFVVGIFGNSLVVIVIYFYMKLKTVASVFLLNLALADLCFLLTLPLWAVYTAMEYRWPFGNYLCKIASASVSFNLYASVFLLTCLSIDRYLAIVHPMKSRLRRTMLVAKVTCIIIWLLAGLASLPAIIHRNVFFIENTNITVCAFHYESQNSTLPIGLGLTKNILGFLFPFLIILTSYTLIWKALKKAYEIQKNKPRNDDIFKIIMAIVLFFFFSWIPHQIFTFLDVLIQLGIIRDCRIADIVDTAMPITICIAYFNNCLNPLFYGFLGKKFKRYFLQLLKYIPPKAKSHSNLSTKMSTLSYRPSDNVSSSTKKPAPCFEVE
# Melanocortin receptor 4 = Melanocortin receptor 4 (Homo sapiens, UniProt P32245); format: functional, cell-based;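 note: Cell-based assay with luminescence read-out, confirmatory dose-response testing for agonist activity of biased ligands at MC4R; human U2OS cells with tagged receptor and beta-arrestin; potency of agonists that increase receptor coupling to beta-arrestin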
# Chain of Melanocortin receptor 4 (P32245 whole entry): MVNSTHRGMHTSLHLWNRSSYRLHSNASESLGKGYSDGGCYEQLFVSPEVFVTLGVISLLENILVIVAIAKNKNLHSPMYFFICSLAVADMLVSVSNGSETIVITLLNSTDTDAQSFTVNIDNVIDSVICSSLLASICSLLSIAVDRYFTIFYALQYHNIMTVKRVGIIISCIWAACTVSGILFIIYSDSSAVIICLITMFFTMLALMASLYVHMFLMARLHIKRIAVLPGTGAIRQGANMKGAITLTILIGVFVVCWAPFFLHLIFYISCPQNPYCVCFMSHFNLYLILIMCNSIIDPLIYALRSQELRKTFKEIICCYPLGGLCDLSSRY
# cells [11] = assay: cells
# [12] = biological target: DNA dC->dU-editing enzyme APOBEC-3A (Homo sapiens, UniProt P31941); assay: APOBEC3A DNA deaminase inhibitors, dose response, biochemical (AID 504722); format: functional
# Chain of DNA dC->dU-editing enzyme APOBEC-3A (P31941 whole entry): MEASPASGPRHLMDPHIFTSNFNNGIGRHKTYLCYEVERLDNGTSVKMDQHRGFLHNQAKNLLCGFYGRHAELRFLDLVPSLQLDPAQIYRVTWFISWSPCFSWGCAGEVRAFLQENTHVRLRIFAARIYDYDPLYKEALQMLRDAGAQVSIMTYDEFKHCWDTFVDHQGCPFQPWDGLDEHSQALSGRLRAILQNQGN
# [13] = biological target: Glucose-6-phosphate 1-dehydrogenase (Homo sapiens, UniProt P11413); assay: human G6PD enzyme inhibitors, dose response, selectivity assay for P. falciparum G6PD inhibitor project, biochemical, fluorescence (AID 504792); format: functional
# Chain of Glucose-6-phosphate 1-dehydrogenase (P11413 whole entry): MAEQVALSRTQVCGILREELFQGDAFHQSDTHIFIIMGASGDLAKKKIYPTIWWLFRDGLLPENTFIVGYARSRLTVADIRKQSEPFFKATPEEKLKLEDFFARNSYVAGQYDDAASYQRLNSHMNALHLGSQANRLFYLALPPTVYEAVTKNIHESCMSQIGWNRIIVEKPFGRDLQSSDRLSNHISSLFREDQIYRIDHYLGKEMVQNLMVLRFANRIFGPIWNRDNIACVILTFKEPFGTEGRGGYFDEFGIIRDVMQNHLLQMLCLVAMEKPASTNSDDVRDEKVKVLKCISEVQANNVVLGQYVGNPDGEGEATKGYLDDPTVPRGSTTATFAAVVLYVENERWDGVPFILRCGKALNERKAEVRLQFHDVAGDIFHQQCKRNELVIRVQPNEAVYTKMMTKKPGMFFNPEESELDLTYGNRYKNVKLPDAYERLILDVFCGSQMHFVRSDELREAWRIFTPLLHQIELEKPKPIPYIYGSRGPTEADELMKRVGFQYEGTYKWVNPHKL
# [14] = biological target: DNA dC->dU-editing enzyme APOBEC-3G (Homo sapiens, UniProt Q9HC16); assay: Dose Response confirmation of small molecule APOBEC3G DNA Deaminase Inhibitors via a fluorescence-based single-stranded DNA deaminase assay. [Related pubchem assays (depositor defined):AID493012, AID493028]; format: functional
# Chain of DNA dC->dU-editing enzyme APOBEC-3G (Q9HC16 whole entry): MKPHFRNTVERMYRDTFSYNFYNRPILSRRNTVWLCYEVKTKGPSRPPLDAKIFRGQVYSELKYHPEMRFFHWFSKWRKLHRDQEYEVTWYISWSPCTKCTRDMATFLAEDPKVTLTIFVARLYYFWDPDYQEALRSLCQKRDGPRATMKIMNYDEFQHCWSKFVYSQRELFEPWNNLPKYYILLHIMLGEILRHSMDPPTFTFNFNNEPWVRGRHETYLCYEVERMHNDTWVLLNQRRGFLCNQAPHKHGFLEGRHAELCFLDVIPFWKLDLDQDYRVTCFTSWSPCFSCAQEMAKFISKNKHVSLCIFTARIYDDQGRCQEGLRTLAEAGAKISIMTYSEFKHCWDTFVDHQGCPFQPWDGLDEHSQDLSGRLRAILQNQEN
# [15] = microbe, parasite or virus in culture; format: functional; conditions: Mycobacterium tuberculosis
# [16] = THP-1 cell cytotoxicity, dose response, cytotoxicity control for non-replicating M. tuberculosis project (AID 489025); format: functional
# [17] = Vero E6 cell cytotoxicity, dose response, cytotoxicity control for non-replicating M. tuberculosis project, secondary assay (AID 492998); format: functional, VeroE6; conditions: Vero C1008
# cells [18] = format: functional
# HEK293 [19] = assay: inhibitors of LMP1-driven NF-kB reporter, dose response, cell-based, HEK293, luciferase, cherry-pick (AID 588343); format: functional; conditions: Homo sapiens
# [20] = HepG2 cell cytotoxicity, dose response, cytotoxicity control for non-replicating M. tuberculosis project (AID 489018); format: functional; conditions: Mycobacterium tuberculosis
# HEK293 [21] = assay: NOD1 signaling inhibitors, primary screen, cell-based, luminescence, uHTS (AID 1578); format: functional; conditions: Homo sapiens
# HEK293 [22] = assay: cells; format: functional, cell-based; conditions: Homo sapiens
# HEK293 [23] = assay: cells; format: functional, cell-based; conditions: Homo sapiens; remark: listed apart in the source
# [24] = biological target: Nucleotide-binding oligomerization domain-containing protein 2 (Homo sapiens, UniProt Q9HC29); assay: NOD2 signaling inhibitors, cell-based, luminescence, uHTS, HEK293 (AID 1566); format: functional
# Chain of Nucleotide-binding oligomerization domain-containing protein 2 (Q9HC29 whole entry, the tested form may be a part): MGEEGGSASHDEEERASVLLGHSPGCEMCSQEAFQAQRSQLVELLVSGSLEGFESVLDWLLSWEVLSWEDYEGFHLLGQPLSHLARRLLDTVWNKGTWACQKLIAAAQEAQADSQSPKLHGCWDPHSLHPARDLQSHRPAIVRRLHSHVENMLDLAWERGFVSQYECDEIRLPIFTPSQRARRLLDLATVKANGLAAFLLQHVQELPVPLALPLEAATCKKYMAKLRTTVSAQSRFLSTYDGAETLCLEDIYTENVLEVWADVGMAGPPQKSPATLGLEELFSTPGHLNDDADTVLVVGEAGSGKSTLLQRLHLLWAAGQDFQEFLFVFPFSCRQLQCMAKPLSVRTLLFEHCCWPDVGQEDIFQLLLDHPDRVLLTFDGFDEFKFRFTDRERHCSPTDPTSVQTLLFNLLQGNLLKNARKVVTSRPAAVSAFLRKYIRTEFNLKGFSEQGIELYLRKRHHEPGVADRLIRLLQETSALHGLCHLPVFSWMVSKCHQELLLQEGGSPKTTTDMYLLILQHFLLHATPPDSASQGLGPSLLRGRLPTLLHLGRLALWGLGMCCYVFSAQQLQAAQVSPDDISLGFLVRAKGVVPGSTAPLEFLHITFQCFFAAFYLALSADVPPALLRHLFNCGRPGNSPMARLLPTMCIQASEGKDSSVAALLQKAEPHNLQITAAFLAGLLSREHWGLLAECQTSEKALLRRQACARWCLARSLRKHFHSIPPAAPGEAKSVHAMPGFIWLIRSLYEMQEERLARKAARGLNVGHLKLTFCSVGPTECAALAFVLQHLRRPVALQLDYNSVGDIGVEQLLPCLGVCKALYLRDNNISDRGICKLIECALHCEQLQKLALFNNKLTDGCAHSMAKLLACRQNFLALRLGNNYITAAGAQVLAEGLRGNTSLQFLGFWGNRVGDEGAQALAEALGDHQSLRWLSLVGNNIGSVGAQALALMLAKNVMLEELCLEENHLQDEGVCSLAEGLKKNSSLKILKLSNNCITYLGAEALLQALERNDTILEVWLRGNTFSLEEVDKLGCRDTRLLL
# HEK293 [25] = assay: NOD2 signaling inhibitors in MDP-stimulated cells, cell-based, uHTS, luminescence (AID 2001); format: functional; conditions: Homo sapiens
# HEK293 [26] = assay: cells; format: functional, cell-based; conditions: Homo sapiens; remark: listed apart in the source
# [27] = biological target: T4, Ubiquitin-conjugating enzyme E2 N (Homo sapiens, UniProt P61088); format: functional;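 note: Dose-response confirmation in a TR-FRET assay detecting UBC13-driven polyubiquitin chain formation, inhibition measured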
# T4 sequence (P61088 whole entry): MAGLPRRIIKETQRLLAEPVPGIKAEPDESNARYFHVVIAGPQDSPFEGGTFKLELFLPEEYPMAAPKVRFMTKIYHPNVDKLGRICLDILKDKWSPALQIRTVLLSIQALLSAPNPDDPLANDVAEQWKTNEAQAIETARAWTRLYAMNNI
# [28] = biological target: Alkaline phosphatase, placental type (Homo sapiens, UniProt P05187); assay: PLAP enzyme inhibitors, confirmation, biochemical, luminescence (AID 1512); format: functional
# Chain of Alkaline phosphatase, placental type (P05187 whole entry): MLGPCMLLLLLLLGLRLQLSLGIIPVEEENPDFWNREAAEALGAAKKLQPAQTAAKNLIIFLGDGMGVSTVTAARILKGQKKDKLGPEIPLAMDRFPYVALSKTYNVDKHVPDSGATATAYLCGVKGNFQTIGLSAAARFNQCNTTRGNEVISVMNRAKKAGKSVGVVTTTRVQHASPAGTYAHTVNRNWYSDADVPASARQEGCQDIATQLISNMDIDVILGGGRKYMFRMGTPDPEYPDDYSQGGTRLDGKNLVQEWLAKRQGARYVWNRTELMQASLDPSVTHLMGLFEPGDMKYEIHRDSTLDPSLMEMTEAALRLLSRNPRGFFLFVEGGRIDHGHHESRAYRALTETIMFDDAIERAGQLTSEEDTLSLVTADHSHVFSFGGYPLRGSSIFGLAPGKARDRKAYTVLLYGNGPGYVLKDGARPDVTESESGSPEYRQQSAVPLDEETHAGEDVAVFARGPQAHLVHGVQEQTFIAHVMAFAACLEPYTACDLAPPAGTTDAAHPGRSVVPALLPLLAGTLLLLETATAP
structure (smiles),measurement,setting,value
COc1ccc(C)cc1NC(=O)CSc1nnc(COc2ccc(Cl)cc2)n1Cc1ccco1,AC50,[1],5.42 µM (active)
same,IC50,Coagulation factor XII,> 50 µM (inactive)
same,EC50,[2],259 µM (active)
CN(C)CCCN(C(=O)c1cc2cc([N+](=O)[O-])ccc2s1)c1nc2cc3c(cc2s1)OCCO3,CC50,[3],24.5 µM (active)
same,EC50,BJ [4],1.65 µM (active)
same,EC50,BJ [5],7.44 µM (active)
same,EC50,[6],< 0.1 µM (active)
same,EC50,[7],6.94 µM (active)
same,EC50,BJ [8],2.89 µM (inconclusive)
same,EC50,[9],2.96 µM (inconclusive)
same,EC50,[10],> 100 µM (inactive)
same,EC50,Melanocortin receptor 4,> 89.2 µM (inactive)
same,EC50,cells [11],0.148 µM (active)
Nn1c(SCC(=O)Nc2cccnc2Cl)nnc1-c1ccccc1,IC50,[12],> 100 µM (inactive)
same,IC50,[13],> 80 µM (inactive)
same,IC50,[14],13.3 µM (active)
S=C1SCN(Cc2ccco2)CN1Cc1ccco1,CC50,[15],16.8 µM (active)
same,CC50,[16],8.73 µM (active)
same,CC50,[17],18.4 µM (active)
same,IC50,cells [18],22.4 µM (active)
same,AC50,HEK293 [19],0.574 µM (active)
COc1ccc2nc(O)c(C(c3nnnn3CC3CCCO3)N3CCc4ccccc4C3)cc2c1 (stereo unspecified),EC50,[10],> 100 µM (inactive)
CC(C)C[C@H]1CN=C(Nc2ccccc2)N1CCCC1CCCCC1,CC50,[16],16.2 µM (active)
same,CC50,[20],> 20 µM (active)
same,IC50,cells [18],40.1 µM (active)
COc1cc(/C=C/C(=O)c2ccc(C)cc2)ccc1OCC#N,EC50,HEK293 [21],4.61 µM (active)
same,IC50,HEK293 [22],4.56 µM (active)
same,IC50,HEK293 [23],> 20 µM (inactive)
same,EC50,[24],> 20 µM (inactive)
same,IC50,HEK293 [25],5.83 µM (active)
same,IC50,HEK293 [26],> 20 µM (inactive)
COc1ccc(OCC(=O)NNC(=O)c2ccccn2)cc1,IC50,[27],> 20 µM (inactive)
same,IC50,[28],> 100 µM (inactive)
same,IC50,cells [18],9.61 µM (active)
CCN(CC)S(=O)(=O)c1cccc(-c2n[nH]c(=S)n2C)c1,IC50,[12],> 100 µM (inactive)
same,IC50,[14],4.94 µM (active)
